Structures can show the parent of a compound that is named as a salt.
Experiments:
[1] = tested on: spontaneously hypertensive rats of the Okamoto strain; assay: Hypotensive activity: mean arterial blood pressure (MABP) in spontaneously hypertensive rats, method of Chan and Poorvin; format: in vivo; settings: gavage, 100 mg/kg or less, two doses 24 hours apart, sodium chloride loading; 28 hours after initial dose; average of 1-4 rats; initial average 160±1.5 mm; active if ≤116 (1 rat), ≤122 (2 rats), ≤128 (3 rats)
Protocol: The novel compounds of the present invention are also active hypotensive agents and were tested for hypotensive activity by the method of P. S. Chan and D. Poorvin, Clinical and Experimental Hypertension, 1 (6), 817-830 (1979). Male, 16 week old, spontaneously hypertensive rats of the Okamoto strain, from Taconic Farms, Germantown, N.Y. having an average mean arterial blood pressure of 160±1.5 mm of mercury are used in the test. […] A rat is dosed by gavage with a test compound, suspended in 2% pre-boiled starch at a concentration of 50 mg/ml, at a dose of 100 mg/kg of body weight or less, with 0.9% sodium chloride loading at a dose of 25 ml/kg of body weight. A second identical dose of the test compound, without sodium chloride loading is given 24 hours later. At 28 hours after the initial dose, the mean arterial blood pressure (MABP) is measured by the method of Chan and Poorvin vide supra. The procedure is repeated in a second and third rat when necessary. Based on the data obtained and using the three-stage "sequential probability ratio test" statistical method, the criteria for activity or retest are as follows:
If the blood pressure in the first rat is ≤116 mm mercury the compound is considered active. If the blood pressure is between […], a second rat is used. If the average blood pressure of the first and second rats is ≤122 mm the compound is considered active. If the average blood pressure is between 123 and 137 mm, a third rat is used. If the average blood pressure of the three rats is ≤128 mm the compound is considered active. The results of this test on representative compounds of the present invention appear in Table II below.

thromboxane synthetase = molecular target: T1, thromboxane synthetase (Rattus norvegicus, UniProt P49430); assay: Inhibition of thromboxane (TXB2) formation in washed rat platelets, TXB2 by direct radioimmunoassay; format: cell-based, Okamoto-Aoki spontaneously hypertensive rats (SHR); settings: 10 min; Dose 10^-4 (unit inferred); SHR platelet suspension, 10 minutes at 37° C.
T1 construct: The platelets were isolated by centrifuging the PRP for 10 minutes; endogenous in cells; host or cells: washed platelets from arterial blood of Okamoto-Aoki spontaneously hypertensive rats (rats from Taconic Farms)
T1 sequence (P49430 1-533): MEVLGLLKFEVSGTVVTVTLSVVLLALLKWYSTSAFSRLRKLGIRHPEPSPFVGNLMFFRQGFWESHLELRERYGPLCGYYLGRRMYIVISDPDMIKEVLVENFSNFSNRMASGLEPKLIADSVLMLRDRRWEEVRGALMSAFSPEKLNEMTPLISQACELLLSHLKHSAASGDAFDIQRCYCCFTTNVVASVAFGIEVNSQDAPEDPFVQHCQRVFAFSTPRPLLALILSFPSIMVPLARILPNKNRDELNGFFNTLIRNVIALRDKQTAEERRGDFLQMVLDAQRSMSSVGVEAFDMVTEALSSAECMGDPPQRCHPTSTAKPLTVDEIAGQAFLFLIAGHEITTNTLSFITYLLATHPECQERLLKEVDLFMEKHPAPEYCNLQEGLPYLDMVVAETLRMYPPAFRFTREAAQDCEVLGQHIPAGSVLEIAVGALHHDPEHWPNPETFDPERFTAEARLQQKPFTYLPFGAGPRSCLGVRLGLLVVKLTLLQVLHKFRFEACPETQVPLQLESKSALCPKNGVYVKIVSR
Protocol: Under urethan anesthesia, […] of arterial blood was collected in one ml. of 3.2% sodium citrate in a polystyrene tube from Okamoto-Aoki spontaneously hypertensive rats (SHR) (Taconic Farms, Germantown, NY) between 19 and 24 weeks in age. The blood was diluted with 3 ml. cold saline and centrifuged at room temperature for 15 minutes at 460×g. The platelet rich plasma (PRP) was separated. The platelets were isolated by centrifuging the PRP for 10 minutes at 1060×g and were washed in 4 ml. cold oxygenated Krebs phosphate buffer, pH 7.4. The chilled patelets recovered from centrifuging at 800×g for 10 minutes were resuspended in oxygenated Krebs phosphate buffer and diluted to contain 4.5-6.0×10^4 platelets/μl.
The inhibition of thromboxane (TX) formation was studied by determining the […] of thromboxane B2 (TXB2), the stable hydrolysis product of TXA2. Assay samples, prepared on ice, contained 200 μl platelet suspension, 50 μl saline, and 50 μl vehicle or drug under study (OKY-1581, UK-37248-01, 1-benzylimidazole, or indomethacin). The samples were incubated for 10 minutes at 37° C. in a metabolic shaker. The reaction was terminated by immersing the tubes in an ice bath and adding 50 μl of 0.5M citric acid. The samples were centrifuged for 10 minutes in a refrigerated centrifuge and the supernatants thus obtained were decanted and stored at -20° C. The TXB2 content for each sample was determined by a direct radioimmunoassay (RIA) utilizing a TXB2 specific RIA kit purchased from New England Nuclear, Boston, MA and expressed as pg TXB2 formed minute^-1 sample^-1, from which the percent inhibition of TXB2 formation was calculated.

Cc1ccc(CC(=O)NCCCn2ccnc2)cc1 [N--[3-(1H--imidazol-1-yl)propyl]-4-methylbenzeneacetamide, hemifumarate]
MABP/mm Hg [1]: 109 mm Hg

Cc1cn(CCCNC(=O)c2ccc(Cl)cc2)cn1 [4-chloro-N--[3-(4-methyl-1H--imidazol-1-yl)propyl]benzamide]
inhibition at 100 µM (thromboxane synthetase): 93%
MABP/mm Hg [1]: 112 mm Hg

O=C(NCCCn1ccnc1)c1ccc(Cl)cc1 [4-chloro-N--[3-(1H--imidazol-1-yl)propyl]benzamide]
inhibition at 100 µM (thromboxane synthetase): 95%
MABP/mm Hg [1]: 126 mm Hg

O=C1c2ccccc2C(=O)N1CCCCCCn1ccnc1 [2-[6-(1H--imidazol-1-yl)hexyl]-1H--isoindole-1,3(2H)--dione]
MABP/mm Hg [1]: 110 mm Hg

O=C(NCCCn1ccnc1)c1ccccc1 [N-[3-(1H-Imidazol-1-yl)propyl]benzamide]
inhibition at 100 µM (thromboxane synthetase): 96.3%
MABP/mm Hg [1]: 128 mm Hg

O=C(NCCCCn1ccnc1)c1ccc(C(F)(F)F)cc1 [4-trifluoromethyl-N--[4-(1H--imidazol-1-yl)butyl]benzamide fumarate]
inhibition at 100 µM (thromboxane synthetase): 97%
MABP/mm Hg [1]: 123 mm Hg

O=C(NCCCn1ccnc1-c1ccccc1)c1ccc(Br)cc1 [4-bromo-N--[3-(2-phenyl-1H--imidazol-1-yl)propyl]benzamide, fumarate]
MABP/mm Hg [1]: 115 mm Hg

O=C(NCCCn1cnc(-c2ccccc2)c1)c1ccc(Cl)cc1 [4-Chloro-N-[3-(4-phenyl-1H-imidazol-1-yl)propyl]-benzamide]
inhibition at 100 µM (thromboxane synthetase): 69%
MABP/mm Hg [1]: 125 mm Hg

Nc1ccc(Cl)cc1C(=O)NCCCn1ccnc1 [2-amino-5-chloro-N--[3-(1H--imidazol-1-yl)propyl]benzamide]
inhibition at 100 µM (thromboxane synthetase): 96%
MABP/mm Hg [1]: 113 mm Hg

Cc1cn(CCCNC(=O)c2cccc(Cl)c2)cn1 [3-chloro-N--[3-(4-methyl-1H--imidazol-1-yl)propyl]benzamide]
inhibition at 100 µM (thromboxane synthetase): 84%
MABP/mm Hg [1]: 122 mm Hg

CC(CCNC(=O)c1ccc(Cl)c(Cl)c1)n1ccnc1 (stereo not shown) [3,4-dichloro-N--[3-(1H--imidazol-1-yl)butyl]benzamide]
inhibition at 100 µM (thromboxane synthetase): 86%
MABP/mm Hg [1]: 123 mm Hg

O=C(NCCCn1ccnc1)c1ccc(Br)cc1 [4-bromo-N--[3-(1H--imidazol-1-yl)propyl]benzamide]
inhibition at 100 µM (thromboxane synthetase): 85%
MABP/mm Hg [1]: 120 mm Hg

O=C(NCCCn1ccnc1)c1cccc(Cl)c1 [3-Chloro-N-[3-(1H-imidazol-1-yl)propyl]benzamide]
inhibition at 100 µM (thromboxane synthetase): 75.4%
MABP/mm Hg [1]: 124 mm Hg

Cc1cn(CCCNC(=O)c2ccc(C(F)(F)F)cc2)cn1 [4-trifluoromethyl-N--[3-(4-methyl-1H--imidazol-1-yl)propyl]benzamide]
inhibition at 100 µM (thromboxane synthetase): 92%
MABP/mm Hg [1]: 114 mm Hg

C=CCNc1ccc(Cl)cc1C(=O)NCCCn1ccnc1 [2-Allylamino-5-chloro-N--[3-(1H--imidazol-1-yl)propyl]benzamide]
inhibition at 100 µM (thromboxane synthetase): 95%
MABP/mm Hg [1]: 124 mm Hg

O=C(NCCCn1ccnc1)c1ccccc1-c1ccccc1 [2-phenyl-N--[3-(1H--imidazol-1-yl)propyl]benzamide]
inhibition at 100 µM (thromboxane synthetase): 95%
MABP/mm Hg [1]: 124 mm Hg

Cc1cc(Cl)cc(C(=O)NCCCn2ccnc2)c1N [2-amino-5-chloro-3-methyl-N--[3-(1H--imidazol-1-yl)propyl]benzamide dihydrochloride salt]
inhibition at 100 µM (thromboxane synthetase): 80%
MABP/mm Hg [1]: 125 mm Hg

CC(CCN1C(=O)c2ccccc2C1=O)n1ccnc1 (stereo not shown) [2-[3-(1H--imidazol-1-yl)butyl]-1H--isoindole-1,3(2H)--dione]
MABP/mm Hg [1]: 124 mm Hg

Cc1nccn1CCCNC(=O)c1ccc(Cl)cc1 [4-chloro-N--[3-(2-methyl-1H--imidazol-1-yl)propyl]benzamide]
MABP/mm Hg [1]: 121 mm Hg

Cc1cn(CCCNC(=O)c2ccc(Cl)c(Cl)c2)cn1 [3,4-dichloro-N--[3-(4-methyl-1H--imidazol-1-yl)propyl]benzamide]
inhibition at 100 µM (thromboxane synthetase): 90%
MABP/mm Hg [1]: 116 mm Hg

O=C1c2ccccc2C(=O)N1CCCCn1ccnc1 [2-[4-(1H-Imidazol-1-yl)butyl]-1H-isoindole-1,3(2H)-dione]
inhibition at 100 µM (thromboxane synthetase): 99%
MABP/mm Hg [1]: 120 mm Hg

O=C(NCCCn1ccnc1)c1ccc2ccccc2c1 [N--[3-(1H--imidazol-1-yl)propyl]-2-naphthalenecarboxamide]
inhibition at 100 µM (thromboxane synthetase): 97%
MABP/mm Hg [1]: 127 mm Hg

O=C(NCCCn1ccnc1)c1cccc2ccccc12 [N--[3-(1H--imidazol-1-yl)propyl]-1-naphthalenecarboxamide]
inhibition at 100 µM (thromboxane synthetase): 75%
MABP/mm Hg [1]: 124 mm Hg

Cc1cn(CCCNC(=O)c2ccc(Br)cc2)cn1 [4-bromo-N--[3-(4-methyl-1H--imidazol-1-yl)propyl]benzamide]
inhibition at 100 µM (thromboxane synthetase): 80%
MABP/mm Hg [1]: 122 mm Hg
